Results published in patent US9725483B2, “Compounds for the treatment and/or care of the skin and/or mucous membranes and their use in cosmetic or pharmaceutical compositions” (LUBRIZOL ADVANCED MATERIALS, INC., priority 2012, dated 2017).
Residues, ends and D or L forms follow the SMILES beside them.

Experiments:
[1] = molecular target: LL-37, cathelicidin C-terminal antimicrobial peptide (UniProt P49913); assay: cell-based or functional assay
[2] = system: collagenase; assay: Anti-collagenase activity, fluorescein-derivatized gelatin; assay type: biochemical; conditions: collagenase 0.4 U/mL, 2 hours
Description: Different concentrations of the peptide Ac-L-Ala-L-Thr-L-Asn-L-Thr-OH (Ac-(SEQ ID NO: 16)-OH) were incubated in a 96-well plate together with fluorescein-derivatized gelatin, a fluorescent marker. Next, collagenase (0.4 U/mL) was added and incubated at room temperature protected from sunlight for 2 hours, after which the fluorescence (λexc=495 nm and λem=515 nm) was measured at different points, thus the breakage in the derivatized gelatin could be quantified. As a positive control 1,10-phenanthroline was used, a metal chelator which acts as an inhibitor of metalloproteases.

[3] = system: IL-6 release induced by LL-37 in primary human keratinocytes; assay: Inhibition of the release of IL-6 induced by LL-37 in primary human keratinocytes (ELISA); assay type: cell-based; conditions: carrier = 100%
Description: (§1) Solutions of the compounds of the invention were prepared in Eppendorf tubes at the desired concentrations in complete Epilife® medium with and without LL-37 at 50 μg/mL in a final volume of 250 μL. The mixtures were incubated in rotation for 1 hour at room temperature. After the preincubation hour the samples were collected and they were given a quick pulse in the centrifuge to push all the solution to the bottom of the tube. Without removing the incubation medium, it was added to the 50 μL/well cells of the previous mixtures in quadruplicate and the plate was incubated at 37° C. in a CO2 incubator for 1 hour. After the hour of incubation, 50 μL/well of complete Epilife® medium were added. They were incubated for another 5 hours to allow the release of pro-inflammatory cytokines induced by LL-37 for their subsequent quantification by ELISA. After the 5 hours, the […] of supernatants were collected with the multi-channel pipette and passed to a new 96-well plate and the quantity of IL-6 and IL-8 released was determined by the Human IL-6 ELISA Ready-SET-GO!® and Human IL-8 ELISA Ready-SET-GO!® commercial kits (eBioscience, Inc.) following the supplier's instructions. The absorbency of each well was determined by reading a Multiskan Ascent Reader spectrophotometer at 450 nm correcting for each determination with its corresponding reading at 570 nm. The standardized relative levels of IL-6 and IL-8 were calculated with regard to the absorbency corresponding to the treatment of the cells with carrier. Next, the total number of cells per well was quantified with Cristal Violeta, in order to be able to calculate the percentage of interleukins released per cell.
(§2) In table 4 the results obtained from the release of IL-8 are detailed.

[4] = system: human epidermal melanocytes; assay: Inhibition of melanogenesis in human epidermal melanocytes; assay type: cell-based; conditions: repeated treatment to day 10, control (culture medium) = 100
Description: Primary human melanocytes were cultivated in medium 254 supplemented by HMGS and antibiotics. The cells were grown for 72 hours after which the medium was changed to 254 supplemented by HMGS-2 and antibiotics. The cells were grown until confluence for 2 weeks, changing the medium every 2-3 days. After two weeks, the cells were trypsinized and seeded in 6-well plates. After being incubated for a whole night at 37° C. and 5% of CO2, the first treatment with the peptide was carried out at different concentrations. As a negative control, only medium was added. The treatment was repeated on days 3, 6, 8 and 10, after which the cells were trypsinized and the number counted with a cell counter. Melanin was quantified by measuring the absorbency at 450 nm with a microplate reader and the value was standardized with regard to the total number of cells per well, expressed as picograms of melanin per cell from a calibration line prepared with synthetic melanin dissolved in 1 N NaOH with 10% DMSO.

[5] = system: IL-8 release induced by LL-37 in primary human keratinocytes; assay: Inhibition of the release of IL-8 induced by LL-37 in primary human keratinocytes (ELISA); assay type: cell-based; conditions: carrier = 100%
Description: as §1, §2

[6] = system: tyrosinase; assay: Anti-tyrosinase activity, L-DOPA substrate; assay type: biochemical
Description: Different concentrations of the peptide […]-OH (Ac-(SEQ ID NO: 16)-OH) were incubated in a 96-well plate together with L-DOPA in a HEPES buffer for 30 minutes at 37° C. After incubation, the tyrosinase enzyme was added and incubated for 10 minutes. The reaction was stopped freezing the plate at -20° C. for 5 minutes, after which the absorbency was measured at λexc=490 nm in a microplate reader. As a positive control kojic acid was added, a substance with known anti-tyrosinase activity.

[7] = molecular target: collagenase; assay: cell-based or functional assay
[8] = molecular target: tyrosinase; assay: cell-based or functional assay
[9] = peptide 0.025 mg/mL + LL-37 0.05 mg/ml
[10] = peptide 0.1 mg/mL + LL-37 0.05 mg/ml
[11] = peptide 0.5 mg/mL + LL-37 0.05 mg/ml

Ac-L-Ser-L-Val-L-Arg-L-Val-L-Ala-L-Val-NH2 (Ac-(SEQ ID NO: 2)-NH2) (peptide)
% IL-6 released by primary human keratinocytes (ELISA), peptide 0.025 mg/mL + LL-37 0.05 mg/ml; carrier 100%, LL-37 alone 122.28% [1]: 108%
% IL-6 released by primary human keratinocytes (ELISA), peptide 0.1 mg/mL + LL-37 0.05 mg/ml; carrier 100%, LL-37 alone 122.28% [1]: 96%
% IL-6 released by primary human keratinocytes (ELISA), peptide 0.5 mg/mL + LL-37 0.05 mg/ml; carrier 100%, LL-37 alone 122.28% [1]: 93.2%
% IL-8 released by primary human keratinocytes (ELISA), peptide 0.025 mg/mL + LL-37 0.05 mg/ml; carrier 100%, LL-37 alone 142.65% [1]: 133%
% IL-8 released by primary human keratinocytes (ELISA), peptide 0.1 mg/mL + LL-37 0.05 mg/ml; carrier 100%, LL-37 alone 142.65% [1]: 125%
% IL-8 released by primary human keratinocytes (ELISA), peptide 0.5 mg/mL + LL-37 0.05 mg/ml; carrier 100%, LL-37 alone 142.65% [1]: 109%

c1cnc2c(c1)ccc1cccnc12 [1,10-phenanthroline, reference compound]
% collagenase inhibition ([2]; 40 μg/mL): 95.19%

CC(=O)N[C@@H](C)C(=O)N[C@H](C(=O)N[C@@H](CC(N)=O)C(=O)N[C@H](C(=O)O)[C@@H](C)O)[C@@H](C)O [Ac-L-Ala-L-Thr-L-Asn-L-Thr-OH] (Ac-ATNT-OH)
% IL-6 [3, 9]: 107.25%
% IL-6 [3, 10]: 94.65%
% IL-6 [3, 11]: 92.90%
% collagenase inhibition ([2]; 2 mg/mL): 29.21%
% collagenase inhibition ([2]; 10 mg/mL): 100%
% melanin (pg/cel) ([4]; 0.25 mg/mL): 45.7 ± 3.2%
% melanin (pg/cel) ([4]; 0.625 mg/mL): 55.8 ± 2.8%
% IL-8 [5, 9]: 132.70%
% IL-8 [5, 10]: 124.76%
% IL-8 [5, 11]: 109.39%
% tyrosinase inhibition ([6]; 2 mg/mL): 38.23%
% tyrosinase inhibition ([6]; 3 mg/mL): 76.01%
% tyrosinase inhibition ([6]; 4 mg/mL): 86.45%

Ac-L-Ala-L-Thr-L-Asn-L-Thr-OH (Ac-(SEQ ID NO: 16)-OH) (peptide)
% collagenase inhibition (cleavage of fluorescein-derivatized gelatin, collagenase 0.4 U/mL), peptide 2 mg/mL [7]: 29.2%
% collagenase inhibition (cleavage of fluorescein-derivatized gelatin, collagenase 0.4 U/mL), peptide 10 mg/mL [7]: 100%
% IL-6 released by primary human keratinocytes (ELISA), peptide 0.025 mg/mL; carrier 100%, LL-37 0.05 mg/ml alone 122.28% [1]: 107%
% IL-6 released by primary human keratinocytes (ELISA), peptide 0.1 mg/mL + LL-37 0.05 mg/ml; carrier 100%, LL-37 alone 122.28% [1]: 94.7%
% IL-6 released by primary human keratinocytes (ELISA), peptide 0.5 mg/mL + LL-37 0.05 mg/ml; carrier 100%, LL-37 alone 122.28% [1]: 92.9%
% IL-8 released by primary human keratinocytes (ELISA), peptide 0.025 mg/mL + LL-37 0.05 mg/ml; carrier 100%, LL-37 alone 142.65% [1]: 133%
% IL-8 released by primary human keratinocytes (ELISA), peptide 0.1 mg/mL + LL-37 0.05 mg/ml; carrier 100%, LL-37 alone 142.65% [1]: 125%
% IL-8 released by primary human keratinocytes (ELISA), peptide 0.5 mg/mL + LL-37 0.05 mg/ml; carrier 100%, LL-37 alone 142.65% [1]: 109%
% tyrosinase inhibition (L-DOPA oxidation, absorbance 490 nm), peptide 2 mg/mL [8]: 38.2%
% tyrosinase inhibition (L-DOPA oxidation, absorbance 490 nm), peptide 3 mg/mL [8]: 76%
% tyrosinase inhibition (L-DOPA oxidation, absorbance 490 nm), peptide 4 mg/mL [8]: 86.5%

Ac-L-Ser-L-Val-L-Arg-L-Val-L-Ala-L-Val-NH2 (Ac-SVRVAV-NH2)
% IL-6 [3, 9]: 108.35%
% IL-6 [3, 10]: 95.96%
% IL-6 [3, 11]: 93.15%
% IL-8 [5, 9]: 132.92%
% IL-8 [5, 10]: 125.05%
% IL-8 [5, 11]: 109.24%

LL-37: cathelicidin C-terminal antimicrobial peptide, used to induce release of IL-6 and IL-8 (LLGDFFRKSKEKIGKEFKRIVQRIKDFLRNLVPRTES; Antibacterial peptide LL-37; UniProt P49913 134-170, looked up) [reference compound]
% IL-6 ([3]; LL-37 0.05 mg/ml alone (positive control)): 122.28%
% IL-8 ([5]; LL37 0.05 mg/ml alone (positive control)): 142.65%

O=c1cc(CO)occ1O [kojic acid, reference compound]
% tyrosinase inhibition ([6]; 140 μg/mL): 85.79%
